Results on one compound are retold here after article PMC11970527 (RSC Chemical Biology, 2025).

The nature of data set [1]: Precipitation Assay with CaCl2. The format is physicochemical. The following applies: 4 mM ligand, pH 7.4, 100 mM tris.
For data set [2], the target named is T1, AvrA (Salmonella enterica subsp. enterica serovar Typhimurium, UniProt E8XKZ3).
T1 sequence (E8XKZ3 1-301): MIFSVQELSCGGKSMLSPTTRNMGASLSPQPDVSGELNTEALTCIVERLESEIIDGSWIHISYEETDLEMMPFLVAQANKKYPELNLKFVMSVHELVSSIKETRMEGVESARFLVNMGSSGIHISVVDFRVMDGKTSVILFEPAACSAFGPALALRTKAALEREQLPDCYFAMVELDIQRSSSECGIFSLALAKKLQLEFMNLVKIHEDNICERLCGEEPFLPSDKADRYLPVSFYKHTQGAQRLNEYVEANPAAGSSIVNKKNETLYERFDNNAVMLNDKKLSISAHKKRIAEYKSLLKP
The following applies: read-out: Kd previously described; cited from earlier work.

For another data set, the system named is VopA. Description: differential scanning fluorimetry. The format is binding, Vibrio parahaemolyticus. The conditions noted are these: DSF, nonlinear curve fit, n = 5. (DSF heats the sample and reads unfolding from a dye or from intrinsic fluorescence.)
The test system of another data set is phytase-4. As to the kind of experiment: stability against phytase-4 by 31P NMR. The format is in vitro ADME, wheat. The following applies: 4 mM ligand, over 32 h, 100 mM acetate buffer pH 5.
The target of the next data set is TcdB CPD (Clostridioides difficile, UniProt P18177). As to the kind of experiment: isothermal calorimetry. Format: binding. A general note: In ITC the heat of successive injections is recorded.
For data set [3] the following is noted: pH 7.4; cited from earlier work.
Data set [4] deals with T1, AvrA. As to the kind of experiment: isothermal calorimetry. The format is binding.

pKd: −log10 of the molar value. Like-named read-outs stand apart in the source and are kept apart here.

Chain of TcdB CPD (P18177 543-799 limits assumed): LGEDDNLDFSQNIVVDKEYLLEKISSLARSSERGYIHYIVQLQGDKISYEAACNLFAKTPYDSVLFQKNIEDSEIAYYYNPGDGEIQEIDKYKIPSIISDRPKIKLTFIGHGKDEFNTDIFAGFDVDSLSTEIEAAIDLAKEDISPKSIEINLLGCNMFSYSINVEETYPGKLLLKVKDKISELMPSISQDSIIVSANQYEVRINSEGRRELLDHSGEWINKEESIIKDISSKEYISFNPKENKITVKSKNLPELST

Take `O=P(O)(O)O[C@H]1[C@H](OP(=O)(O)O)[C@@H](OP(=O)(O)O)[C@H](OP(=O)(O)O)[C@@H](OP(=O)(O)O)[C@H]1OP(=O)(O)O` [IP6, myo-inositol hexakisphosphate]: in data set [1], the “CaCl2 concentration that induces precipitation (X0)” value came out at 4 mM. For the same compound, the pKd is 5.29 at AvrA [2]; 5.72 at TcdB CPD; 6.86 on AvrA [4] (K d, AvrA, ITC, 20 °C, mean (SD)). Further, the “Maximal ΔTM” value in the data set with VopA came to 12.4 °C. Further, in the data set with phytase-4, the “stability in the presence of phytase-4” value is listed as “hydrolysed within the first hour”. The koff on TcdB CPD is 0.0409 s⁻¹; at AvrA [4] it was 0.00171 s⁻¹. Also, the ΔH on TcdB CPD (TcdB CPD, ITC, 20 °C, mean (SD)) is given as −22.94 (0.05) kcal mol^−1; at AvrA [4] (AvrA, ITC, 20 °C, mean (SD)), −21.09 (0.12) kcal mol^−1. The net charge in data set [3] was −8.

What is called pKd is the negative decadic logarithm of the Kd, by convention in mol/L. Broadly, the koff is the rate constant with which the complex falls apart. Read a low koff as a long-lived complex.
